Reference: ChEMBL document CHEMBL3132789, “Effect of the 4-substituted phenylalanine moiety of sansalvamide A peptide on antitumor activity” (Medchemcomm, 2014)
Values after ≈ are worked out from the molar mass of the structure shown. Active and inactive are the calls of the source. The rule behind the calls is not given here. Square brackets hold non-standard residues; d marks the D form. Peptide text beside a SMILES is read from it. Phe(4-Br) = N[C@@H](Cc1ccc(Br)cc1)C(=O)O; Phe(4-Cl) = N[C@@H](Cc1ccc(Cl)cc1)C(=O)O; Phe(4-F) = N[C@@H](Cc1ccc(F)cc1)C(=O)O; Phe(4-I) = N[C@@H](Cc1ccc(I)cc1)C(=O)O; Hica(2S) = CC(C)C[C@H](O)C(=O)O

Key:
[1] = system: MDA-MB-231; test: Cytotoxicity against human MDA-MB-231 cells assessed as growth inhibition at 20 ug/ml after 72 hrs by [3H]-thymidine uptake assay; format: functional; conditions: read-out: GI
[2] = system: K562; test: Cytotoxicity against human K562 cells assessed as growth inhibition at 20 ug/ml after 72 hrs by [3H]-thymidine uptake assay; format: functional; conditions: read-out: GI
[3] = system: A549; test: Cytotoxicity against human A549 cells assessed as growth inhibition at 20 ug/ml after 72 hrs by [3H]-thymidine uptake assay; format: functional; conditions: read-out: GI
[4] = system: HCT-116; test: Cytotoxicity against human HCT116 cells after 72 hrs by [3H]-thymidine uptake assay; format: functional, cell-based
[5] = system: HCT-15; test: Cytotoxicity against human HCT15 cells assessed as growth inhibition at 20 ug/ml after 72 hrs by [3H]-thymidine uptake assay; format: functional; conditions: read-out: GI
[6] = system: HT-29; test: Cytotoxicity against human HT-29 cells assessed as growth inhibition at 20 ug/ml after 72 hrs by [3H]-thymidine uptake assay; format: functional; conditions: read-out: GI
[7] = system: HeLa; test: Induction of apoptosis in human HeLa cells assessed as membrane blebbing and nuclear fragmentation at 1.8 ug/ml after 24 hrs by light microscopy analysis; format: functional, cell-based
[8] = system: HCT-15; test: Cytotoxicity against human HCT15 cells after 72 hrs by [3H]-thymidine uptake assay; format: functional, cell-based
[9] = system: HeLa; test: Induction of apoptosis in human HeLa cells assessed as decrease in cell density at 1.8 ug/ml after 24 hrs by light microscopy analysis; format: functional, cell-based
[10] = system: MDA-MB-231; test: Cytotoxicity against human MDA-MB-231 cells assessed as growth inhibition at 2 ug/ml after 72 hrs by [3H]-thymidine uptake assay; format: functional; conditions: read-out: GI
[11] = system: K562; test: Cytotoxicity against human K562 cells after 72 hrs by [3H]-thymidine uptake assay; format: functional, cell-based
[12] = system: HeLa; test: Cytotoxicity against human HeLa cells assessed as growth inhibition at 2 ug/ml after 72 hrs by [3H]-thymidine uptake assay; format: functional; conditions: read-out: GI
[13] = system: HCT-15; test: Cytotoxicity against human HCT15 cells assessed as growth inhibition at 2 ug/ml after 72 hrs by [3H]-thymidine uptake assay; format: functional; conditions: read-out: GI
[14] = system: A549; test: Cytotoxicity against human A549 cells after 72 hrs by [3H]-thymidine uptake assay; format: functional, cell-based
[15] = Induction of apoptosis in human VSMC cells assessed as morphological changes at 1.8 ug/ml after 24 hrs by light microscopy analysis; format: cell-based
[16] = system: MDA-MB-231; test: Cytotoxicity against human MDA-MB-231 cells after 72 hrs by [3H]-thymidine uptake assay; format: functional, cell-based
[17] = system: K562; test: Cytotoxicity against human K562 cells assessed as growth inhibition at 2 ug/ml after 72 hrs by [3H]-thymidine uptake assay; format: functional; conditions: read-out: GI
[18] = system: A549; test: Cytotoxicity against human A549 cells assessed as growth inhibition at 2 ug/ml after 72 hrs by [3H]-thymidine uptake assay; format: functional; conditions: read-out: GI
[19] = system: HeLa; test: Cytotoxicity against human HeLa cells after 72 hrs by [3H]-thymidine uptake assay; format: functional, cell-based
[20] = system: HeLa; test: Induction of apoptosis in human HeLa cells assessed as rounded and smaller cells at 1.8 ug/ml after 24 hrs by light microscopy analysis; format: functional, cell-based
[21] = system: HT-29; test: Cytotoxicity against human HT-29 cells after 72 hrs by [3H]-thymidine uptake assay; format: functional, cell-based
[22] = system: HT-29; test: Cytotoxicity against human HT-29 cells assessed as growth inhibition at 2 ug/ml after 72 hrs by [3H]-thymidine uptake assay; format: functional; conditions: read-out: GI

| SMILES | inhibition of growth at 20 µg/mL [1] [%] | inhibition of growth at 20 µg/mL [2] [%] | inhibition of growth at 20 µg/mL [3] [%] | IC50 [4] [µg/mL] | inhibition of growth at 20 µg/mL [5] [%] | inhibition of growth at 20 µg/mL [6] [%] | also measured |
| --- | --- | --- | --- | --- | --- | --- | --- |
| CC(C)C[C@@H]1NC(=O)[C@H](Cc2ccccc2)NC(=O)[C@H](CC(C)C)NC(=O)[C@H](C(C)C)NC(=O)[C@H](CC(C)C)NC1=O (cyclo(FLLVL)) | 23.6 | 45.3 | 26.6 | 0.98 (≈ 1.67 µM) | 23.1 | 21.5 | – |
| CC(C)C[C@@H]1NC(=O)[C@H](C(C)C)NC(=O)[C@H](CC(C)C)OC(=O)[C@H](CC(C)C)NC(=O)[C@H](Cc2ccccc2)NC1=O (cyclo(FL[Hica(2S)]VL)) | – | – | – | 9.8 (≈ 16.7 µM) | – | – | – |
| COc1ccc(C[C@@H]2NC(=O)[C@H](CC(C)C)NC(=O)[C@H](C(C)C)NC(=O)[C@H](CC(C)C)NC(=O)[C@H](CC(C)C)NC2=O)cc1 (cyclo(LLVLY(Me))) | 43.2 | 93.8 | 98.2 | – | 80.8 | 88.5 | Activity [7]: Active; IC50 [8]: 3.54 µM; Activity [9]: Active; inhibition of growth at 2 µg/mL [10]: 40.5%; IC50 [11]: 2.87 µM; inhibition of growth at 2 µg/mL [12]: 50.9%; inhibition of growth at 2 µg/mL [13]: 78.8%; IC50 [14]: 2.41 µM; Activity [15]: Non-toxic; IC50 [16]: 11.1 µM; inhibition of growth at 2 µg/mL [17]: 86.5%; inhibition of growth at 2 µg/mL [18]: 91.3%; IC50 [19]: 3.22 µM; Activity [20]: Active; IC50 [21]: 3.38 µM; inhibition of growth at 2 µg/mL [22]: 76.4% |
| CC(C)C[C@@H]1NC(=O)[C@H](Cc2ccc(O)cc2)NC(=O)[C@H](CC(C)C)NC(=O)[C@H](C(C)C)NC(=O)[C@H](CC(C)C)NC1=O (cyclo(LLVLY)) | 42.5 | – | – | – | 52 | 34.6 | – |
| CC(C)C[C@@H]1NC(=O)[C@H](Cc2ccc(Cl)cc2)NC(=O)[C@H](CC(C)C)NC(=O)[C@H](C(C)C)NC(=O)[C@H](CC(C)C)NC1=O (cyclo(LLVL[Phe(4-Cl)])) | 15 | 3.57 | 5.2 | – | 1.21 | 1.23 | – |
| CC(C)C[C@@H]1NC(=O)[C@H](Cc2ccc(F)cc2)NC(=O)[C@H](CC(C)C)NC(=O)[C@H](C(C)C)NC(=O)[C@H](CC(C)C)NC1=O (cyclo(LLVL[Phe(4-F)])) | 12.3 | 58.2 | 30.8 | – | 21 | 0 | – |
| CC(C)C[C@@H]1NC(=O)[C@H](Cc2ccc(I)cc2)NC(=O)[C@H](CC(C)C)NC(=O)[C@H](C(C)C)NC(=O)[C@H](CC(C)C)NC1=O (cyclo(LLVL[Phe(4-I)])) | – | – | – | 1.12 (≈ 1.57 µM) | – | – | – |
| CC(C)C[C@@H]1NC(=O)[C@H](C(C)C)NC(=O)[C@H](CC(C)C)OC(=O)[C@H](CC(C)C)NC(=O)[C@H](Cc2ccc(Br)cc2)NC1=O (cyclo(L[Phe(4-Br)]L[Hica(2S)]V)) | – | – | – | 4.5 (≈ 6.76 µM) | – | – | – |
| CC(C)C[C@@H]1NC(=O)[C@H](C(C)C)NC(=O)[C@H](CC(C)C)OC(=O)[C@H](CC(C)C)NC(=O)[C@H](Cc2ccc(I)cc2)NC1=O (cyclo(L[Phe(4-I)]L[Hica(2S)]V)) | – | – | – | 11.3 (≈ 15.9 µM) | – | – | – |
| CC(C)C[C@@H]1NC(=O)[C@H](Cc2ccc(Br)cc2)NC(=O)[C@H](CC(C)C)NC(=O)[C@H](C(C)C)NC(=O)[C@H](CC(C)C)NC1=O (cyclo([Phe(4-Br)]LLVL)) | 89.3 | – | – | 0.58 (≈ 0.873 µM) | 74.3 | 80.2 | – |
